Where “and” joins values, the source holds several entries; their conditions need not be identical. Equal entries are not always repeated. Peptide text beside a SMILES is read from it. * marks the point of attachment. Cbz = O=C(OCc1ccccc1)*
Biological target: T1, BACE1 (Homo sapiens, UniProt P56817)
T1 construct: purchased Sigma-Aldrich Co. LLC; CS0010
Assay: Cell-free FRET assay for BACE1 activity (β-Secretase (BACE1) Activity Detection Kit CS0010)
Format: biochemical
Details: 10 μM; Table S2, thirty-four in vitro tested compounds; mean of at least three independent experiments in triplicate

T1 sequence (P56817 46-501): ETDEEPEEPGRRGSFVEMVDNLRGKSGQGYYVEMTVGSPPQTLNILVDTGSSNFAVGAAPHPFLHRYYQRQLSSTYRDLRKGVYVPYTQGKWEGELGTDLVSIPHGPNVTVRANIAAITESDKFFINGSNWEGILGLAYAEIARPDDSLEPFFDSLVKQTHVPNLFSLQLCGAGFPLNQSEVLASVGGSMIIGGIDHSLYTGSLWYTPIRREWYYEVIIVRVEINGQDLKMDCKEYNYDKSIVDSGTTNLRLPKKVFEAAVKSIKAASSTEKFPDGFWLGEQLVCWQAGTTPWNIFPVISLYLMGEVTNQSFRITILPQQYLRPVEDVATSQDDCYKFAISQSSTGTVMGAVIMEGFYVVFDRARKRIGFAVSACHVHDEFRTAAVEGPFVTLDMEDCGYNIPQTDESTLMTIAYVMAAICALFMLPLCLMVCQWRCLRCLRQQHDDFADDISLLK

Row | Average percent inhibition at 10 μM [%] | SMILES
1 | 12.1 | COc1cc(C(O)C(O)c2cc(CN3CCOCC3)c(O)c(OC)c2)cc(CN2CCOCC2)c1O (stereo not shown) [NSC55229]
2 | 8.6 | N#CC(NCCCNC(C#N)c1ccccc1)c1ccccc1 (stereo not shown) [NSC81537]
3 | 13.0 | CC(=O)c1ccc(OCC(O)CN2CCN(c3ccccc3)CC2)c(C)c1 (stereo not shown) [NSC147841]
4 | 9.6 | CC(=O)c1ccccc1OCC(O)CN1CCN(c2cccc(C(F)(F)F)c2)CC1 (stereo not shown) [NSC147843]
5 | 8.7 | CC(=O)c1ccccc1OCC(O)CN1CCN(c2ccccc2)CC1 (stereo not shown) [NSC147850]
6 | 10.6 | CC(=O)c1cccc(OCC(O)CN2CCN(c3ccc(C)cc3)CC2)c1 (stereo not shown) [NSC147852]
7 | 17.0 | O=C1c2ccccc2C(=O)c2c(NCCCNCCO)ccc(NCCCNCCO)c21 [NSC278467]
8 | 13.4 | O=C(NC(Cc1cnc[nH]1)C(=O)NC(Cc1ccc(O)cc1)C(=O)O)OCc1ccccc1 (stereo not drawn) [NSC333463] (Cbz-His-Tyr-OH; configuration not given here)

Same assay, conditions: 10 μM; mean of at least three independent experiments performed in triplicate; read-out: Average Percent Inhibition at 10 μM

Row | inhibition at 10 µM [%] | SMILES
9 | 50.3 | COc1ccc(C(=O)/C=C/c2cn(CC(O)CN3CCN(C)CC3)c3ccccc23)cc1 (stereo not shown) [Compound 11]
10 | 33.5 | Cc1cc(=O)oc2cc(OCC(O)CN3CCN(c4ccc(F)cc4)CC3)ccc12 (stereo not shown) [Compound 12]
11 | 34.7 | O=C(CCc1ccccc1)c1ccccc1OCC(O)CN1CCCCC1 (stereo not shown) [Compound 13]
12 | 31.3 | CC(=O)Nc1ccc(N2C(=O)CC(NCc3ccc(Cl)cc3Cl)C2=O)cc1 (stereo not shown) [Compound 14]
13 | 30.7 | NC(Cc1ccccc1)C(=O)NCC(=O)NC(Cc1ccccc1)C(=O)NCC(=O)O (stereo not shown) [Compound 15] (H-FGFG-OH; configuration not given here)
14 | 29.9 | CC(CCc1ccc(O)cc1)NCCc1ccc(O)c(O)c1 (stereo not shown) [Compound 16, dobutamine]
15 | 20.6 | CCN(CC)CCNc1ccc(CO)c2oc3ccccc3c(=O)c12 [Compound 18]
16 | 21.2 | Cc1ccc(S(=O)(=O)Oc2ccc3oc4c(CO)ccc(NCCN(C)C)c4c(=O)c3c2)cc1 [Compound 19]
17 | 19.5 | O=C1c2ccccc2C(=O)c2c3c(cc(NCCNCCO)c21)N(CCO)CCN3 [Compound 20]
18 | 18.1 | CC(=O)[C@]1(O)Cc2c(O)c3c(c(O)c2[C@@H](O[C@H]2C[C@H](N)[C@H](O)[C@H](C)O2)C1)C(=O)c1ccccc1C3=O [Compound 21, idarubicin]
19 | 18.1 | CC1(C)N=C(N)N=C(N)N1c1cccc(OCCCOc2ccc(NC(=O)CBr)cc2)c1 [Compound 22]

Row | SMILES | inhibition at 10 µM [%]
20 | O=C1c2c(O)ccc(O)c2C(=O)c2c(NCCNCCO)ccc(NCCNCCO)c21 [Compound 17, mitoxantrone] | 22.6

Same assay, conditions: from the dose-response curve (Figure 8)

Row | IC50 | SMILES
21 | 15400 nM and 15000 nM | COc1ccc(C(=O)/C=C/c2cn(CC(O)CN3CCN(C)CC3)c3ccccc23)cc1 (stereo not shown) [Compound 11]

Same assay, conditions: read-out: Average percent inhibition at 10 μM

Row | SMILES | inhibition at 10 µM [%]
22 | O=C1c2ccccc2C(=O)c2c(NCCNCCO)ccc(NCCNCCO)c21 [NSC196473] | 12.4

Biological target: T1, BACE1
Assay: not given
Design: method as in ChEMBL23 [24]
Details: known BACE1 inhibitors of Training/Test sets; ref ChEMBL23 [24]; cited from earlier work

Row | SMILES | IC50 [nM]
23 | O=C(Nc1cc(Br)ccc1N1CCNCC1)c1cccc2ccccc12 [ChEMBL203120] | 1000
24 | CC(C)C[C@H](NC(=O)[C@@H](NC(=O)[C@@H](N)CNC(=O)c1nn[nH]n1)C(C)C)C(=O)N[C@@H](Cc1ccccc1)[C@@H](O)C(=O)Nc1cc(-c2nn[nH]n2)cc(-c2nn[nH]n2)c1 [ChEMBL439521] | 1.2
25 | CCc1cn2c3c(cc(C(=O)N[C@@H](Cc4ccccc4)[C@H](O)CNC4CC4)cc13)N(CC)S(=O)(=O)CC2 [ChEMBL533064] | 20
26 | Cc1cc(C2(c3cccc(-c4cncnc4)c3)N=C(N)N(C)C2=O)ccn1 (stereo not shown) [ChEMBL598258] | 80
27 | NC1=NC(c2ccccc2)(C2CCCCC2)C(=O)N1CCCCCC(=O)O (stereo not shown) [ChEMBL607527] | 950
28 | O=C(C[n+]1ccccc1)Nc1cccc(C(=O)Nc2ccc(Cl)cc2)c1 [ChEMBL1163225] | 1000
29 | NC1=N[C@@]2(CCOC1)c1cc(-c3cccnc3F)ccc1Oc1cnc(-c3ccc(F)c(F)c3)cc12 [ChEMBL2152912] | 2
30 | NC1=NC(c2ccncc2)(c2cccc(-c3cncc(F)c3)c2)c2cccc(F)c21 (stereo not shown) [ChEMBL2177905] | 137
31 | NC1=N[C@@]2(CO1)c1cc(-c3cccnc3F)ccc1Oc1c2cc(N2CCOCC2)nc1F [ChEMBL3394224] | 0.3
32 | CN1C(=O)CC2(N=C1N)c1cc(-c3cccnc3F)ccc1Oc1c2cc(-c2ccnc(F)c2)nc1F (stereo not shown) [ChEMBL3639946] | 2.4
33 | NC1=NC2(CO1)c1cc(NC(=O)c3ncc(Br)cn3)ccc1OCC21CC1 (stereo not shown) [ChEMBL3650820] | 661
34 | CC1(c2cccc(NC(=O)c3ncc(Br)cn3)c2)COCC(N)=N1 (stereo not shown) [ChEMBL3653345] | 540
35 | CC1=NC2(CC(C3CCOC(C)(C)C3)Oc3ccc(-c4cccc(Cl)c4)cc32)N=C1N (stereo not shown) [ChEMBL3653708] | 5
36 | CCc1ccc2c(c1)C1(N=C(N)N(C)O1)[C@]1(CC[C@H](OC)CC1)C2 (stereo partly shown) [ChEMBL3656204] | 521
37 | CC1(C)OCC(N)=N[C@](C)(c2cc(NC3COc4cc(Cl)ccc43)ccc2F)C1(F)F (stereo partly shown) [ChEMBL3670919] | 320
38 | [C-]#[N+]c1ccc(C(=O)Nc2ccc(F)c([C@]34COC[C@@]3(F)CSC(N)=N4)c2)nc1 [ChEMBL3672943] | 6.6
39 | COC1CCC2(CC1)Cc1ccc(-c3cccc(C#N)c3)cc1C21N=C(N)c2ccccc21 (stereo not shown) [ChEMBL3673221] | 6
40 | COc1cc(F)c2c(c1)C1(N=C(N)n3ccnc31)c1cc(-c3cccnc3F)ccc1O2 (stereo not shown) [ChEMBL3677269] | 9
41 | NC1=N[C@@]2(c3cc(-c4cccnc4F)ccc3Oc3c(F)cc(N4CCOCC4)cc32)c2nccn21 [ChEMBL3677276] | 0.7
42 | NC1=N[C@](CF)(c2cc(NC(=O)c3cc4ccccc4cn3)ccc2F)[C@H]2C[C@H]2O1 [ChEMBL3688633] | 500
43 | NC1=NC2(CO1)c1cc(-c3cc(Cl)cnc3F)ccc1OC1(CCC1)C21COC1 (stereo not shown) [ChEMBL3703272] | 827
44 | CC(C)c1ccc(CO[C@H]2CN(S(=O)(=O)c3ccccc3)C[C@@H]2Nc2nc3cc(F)ccc3[nH]2)cc1 [ChEMBL3746896] | 480
45 | CCO[C@H]1CC[C@]2(CC1)Cc1ccc(-c3cccc(OC)c3)cc1C21N=C(N)N(C)C1=O (stereo partly shown) [ChEMBL3978126] | 15
46 | CC#CCOc1cnc(C(=O)Nc2ccc(Cl)c(C3(C(F)F)N=C(N)OC4CC43)c2)cn1 (stereo not shown) [Compound 4] | 3.9

Source: PMC7226079, “Combining Virtual Screening Protocol and In Vitro Evaluation towards the Discovery of BACE1 Inhibitors” (Biomolecules, 2020)
